Results on one molecule are retold here after patent US8309606B2, “Compounds for use in the treatment of autoimmune diseases, immuno-allergical diseases and organ or tissue transplantation rejection” (Novaremed Limited, priority 2002, dated 2012).

The assay has as its system spleen cells±ConA. Briefly: Proliferation responses of splenocytes ±Con A, [3H]thymidine incorporation. The class given is cell-based, mice. As to conditions: for Con A1 / Con A2 / No Con A: incorporated radioactivity. The procedure:
Spleen cells obtained from native or concanavalin A (Con A)-treated mice were examined in-vitro for their response to T-cell-dependent mitogens. Cells were plated in quadruplicate in 96-well, flat-bottom, microtiter plates (4×10^5 cells/0.2 ml/well) in RPMI-1640 medium supplemented with 5% heat inactivated FCS, 2 mM L-glutamine, 100 U/ml penicillin, […] streptomycin and various concentrations of compound 10 ([…]). All plates were incubated for 48 h in humidified atmosphere of 5% CO2 in air at 37° C., and then pulsed for 18 h with […] ^3[H] thymidine. Cells from each microculture were harvested on fiberglass filters using a multiharvester, and incorporated radioactivity was measured using standard scintillation techniques.
A general note: Incorporation of labelled thymidine or its analogues reports DNA synthesis.

Take `CC(CO)COCC(C)OCC(C)OCC(C)OCC(C)OCC(C)OCC(C)OCC(C)OCC(C)OCC(C)OCC(C)OCC(C)OCC(C)OCC(C)OCC(C)OCC(C)OCC(C)OCC(Cc1ccccc1)NC(=O)CCc1ccc(O)cc1` (stereo not shown) [Compound 10]: the “Con A1” value by setting is: (100 pg/ml) 1280; (1 ng/ml) 733; (100 ng/ml) 880; (1 μg/ml) 986; (100 μg/ml) 598. For the same molecule, the “Con A2” value was determined as 3481 (100 pg/ml); 3609 (1 ng/ml); 2489 (100 ng/ml); 2156 (1 μg/ml); 1380 (100 μg/ml). Further, the “No Con A” value (100 pg/ml) is on record as 271; the “No Con A” value (1 ng/ml) stood at 284; the “No Con A” value (100 ng/ml) was determined as 274; the “No Con A” value (1 μg/ml) is given as 333; the “No Con A” value (100 μg/ml) was found to be 170. The “effect on the proliferation of the splenocytes” value (incubation with compound (Table 1)) is reported as “significant inhibition”.
